From patent publication US11965201B2, “Arginine supplementation to improve efficiency in gas fermenting acetogens” (LanzaTech NZ, Inc., priority 2015, dated 2024)

Assays:
Assay type in all cases: cell-based, Clostridium autoethanogenum
[1] = tested on: C. autoethanogenum DSM10061; test: Continuous biomass monitoring with BugLab device in serum bottle; conditions: before arginine depletion
Method: As the initial fast growth was unexpected, only a couple of samples could be used for calculating tD. Thus, a BugLab biomass monitoring device was attached to a serum bottle on 4AA medium to continuously monitor the increase of biomass before arginine is depleted from the medium. This experiment confirmed the fast growth on 4AAs before arginine depletion as tD was calculated to be ˜2 h (FIG. 10).
To obtain a more accurate value of tD on Arginine medium, a BugLab experiment was performed to continuously monitor the increase of biomass before arginine runs out. This experiment confirmed the fast growth before arginine runs out as tD was calculated to be ˜3 h (FIG. 14).

[2] = tested on: C. autoethanogenum DSM 23693; test: Autotrophic growth and acetate production on CO/CO2/H2 gas mix with arginine supplementation; conditions: for decrease of doubling time by arginine supplementation: vs control without arginine
Method: Growth was carried out in PETC-MES medium without yeast extract (Table 1) using standard anaerobic techniques (Hungate, Meth Microbiol, 3B: 117-132, 1969; Wolfe, Adv Microb Physiol, 6: 107-146, 1971) and 22 psi of CO/CO2/H2 gas mix (composition: 50% CO, 20% CO2, […], 28% N2) headspace pressure.
To study effect of supplementation with arginine, 5 g/L of arginine was added to the media and culture growth and metabolite production during autotrophic growth was compared to the control without arginine.
Growth was followed by measuring the optical density using a Thermo Genesys 20 spectrophotometer. […] Samples were prepared by diluting 400 μL with 100 μL of 5-sulfosalicylic acid solution (1% w/v in 1 M sulphuric acid), followed by a 3 minute centrifugation at 14,000 rpm; the supernatant was transferred to a glass vial for analysis. Separation was carried out with a 10 μL injection on to an Alltech IOA-2000 column (150 mm×6.5 mm×8 μm) at 0.7 mL/min and 65° C. under isocratic conditions, using 5 mM sulphuric acid mobile phase.
The experiment was carried out in two biological repeats with triplicate cultures (n=3) for each condition in a volume of 40 mL media in 1 L Schott bottles at 37° C. with orbital shaking (120 rpm, shake orbit). In each case, acetogenic strain C. autoethanogenum DSM 23693 was pre-cultured in PETC-MES without yeast extract to an OD600 nm of 0.3 and a single preculture was used for inoculation.
In the first experiment to the following conditions: PETC-MES without yeast extract+22 psi syngas (initial OD600 nm=0.005) and PETC-MES without yeast extract+22 psi syngas+5 g arginine/L (initial OD600 nm=0.005).
In the repeat of the experiment, a culture was also inoculated into arginine supplemented media but without the addition of CO/CO2/H2 gas (22 psi of 100% N2 as headspace). This experiment comprised the following three conditions: PETC-MES without yeast extract+22 psi syngas (initial OD600 nm=[…]), PETC-MES without yeast extract+22 psi syngas+5 g arginine/L (initial OD600 nm=0.003), and PETC-MES without yeast extract+5 g arginine/L (initial OD600 nm=0.003).

[3] = tested on: C. autoethanogenum DSM10061; test: Heterotrophic batch growth in YE-free PETC-MES media with amino acid formulations + fructose (OD600)
Text: YE-free PETC-MES media was supplemented with various amino acid formulations—20AA, 7AA, 8AA, 14AA, 12AA, 4AA and Arginine (Table 2)—to identify if any amino acids are supporting growth. Solutions were filter sterilized and made anoxic by sparging N2.
First, a 20AA medium was designed based on the biomass amino acid composition of Clostridium acetobutylicum (Lee et al. 2008) with final amino acid concentrations theoretically supporting production of 1 gDCW/L of biomass.
Growth studies were carried out in batch cultivations in a volume of 50 mL media in 125 mL serum bottles with nitrogen in the headspace under shaking (unless otherwise noted) at 37° C. Optical density (OD) was measured at 600 nm with the reading ˜0.5 outside the anaerobic chamber against fully oxidized medium as reference.

SMILES: N=C(N)NCCC[C@H](N)C(=O)O [arginine]
- doubling time tD (BugLab) [1]: ~3 h
- specific growth rate (BugLab) [1]: 0.21 h⁻¹
- growth on arginine without CO/CO2/H2 gas ([2]; 5 g arginine/L, N2 headspace, 48 hours): no growth observed
- net acetate production ([2]; 5 g arginine/L, until pause in growth at OD600≈0.8): no net acetate production was observed
- doubling time tD ([2]; autotrophic, 5 g/L arginine, 22 psi CO/CO2/H2, until OD600≈0.8): 3.5 h
- specific growth rate μ ([2]; autotrophic, 5 g/L arginine, until OD600≈0.8): 0.198
- decrease of doubling time by arginine supplementation [2]: 52%
- decrease of doubling time by arginine supplementation ([2]; listed as Arginine): over 50%
- doubling time tD in second stage after arginine depletion ([3]; 5 g arginine/L + 5 g fructose/L): ~40 h
- growth faster compared to supplementation with yeast extract ([3]; vs 1 g/L yeast extract): ~3 fold
